≈ marks a conversion by molar mass, not a printed value.
Assays:
[1] = Metabolic stability in human liver microsomes assessed as compound remaining after 30 mins; type: ADME, Microsome; conditions: read-out: Stability
[2] = Metabolic stability in mouse liver microsomes assessed as compound remaining after 30 mins; type: ADME, Microsome; conditions: read-out: Stability
[3] = Kinetic solubility of the compound; type: physicochemical; conditions: read-out: Kinetic_solubility
[4] = molecular target: Isocitrate dehydrogenase [NADP] cytoplasmic (Homo sapiens, UniProt O75874, R132C); test: Inhibition of human Myc-DDK-tagged IDH1 R132C mutant assessed as reduction in NADPH consumption pre-incubated for 15 mins followed by alpha-ketoglutarate substrate and NADPH addition after 45 mins by diaphorase and resazurin dye based assay
Chain of Isocitrate dehydrogenase [NADP] cytoplasmic (Homo sapiens, UniProt O75874, R132C) (O75874 2-414 R132C limits assumed): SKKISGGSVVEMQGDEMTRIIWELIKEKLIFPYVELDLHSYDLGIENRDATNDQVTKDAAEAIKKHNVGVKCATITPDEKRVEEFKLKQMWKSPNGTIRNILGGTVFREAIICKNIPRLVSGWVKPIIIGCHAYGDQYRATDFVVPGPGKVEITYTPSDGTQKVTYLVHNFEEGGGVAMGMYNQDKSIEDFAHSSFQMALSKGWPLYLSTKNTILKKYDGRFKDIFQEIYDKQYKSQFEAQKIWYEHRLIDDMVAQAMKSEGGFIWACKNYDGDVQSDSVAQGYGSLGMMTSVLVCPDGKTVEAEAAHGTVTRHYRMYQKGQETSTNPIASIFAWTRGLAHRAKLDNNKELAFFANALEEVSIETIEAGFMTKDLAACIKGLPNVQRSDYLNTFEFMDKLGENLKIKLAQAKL

[5] = molecular target: Isocitrate dehydrogenase [NADP] cytoplasmic (Homo sapiens, UniProt O75874); test: Inhibition of wild-type IDH1 (unknown origin) by NADPH fluorescence based assay
Chain of Isocitrate dehydrogenase [NADP] cytoplasmic (Homo sapiens, UniProt O75874) (O75874 whole entry): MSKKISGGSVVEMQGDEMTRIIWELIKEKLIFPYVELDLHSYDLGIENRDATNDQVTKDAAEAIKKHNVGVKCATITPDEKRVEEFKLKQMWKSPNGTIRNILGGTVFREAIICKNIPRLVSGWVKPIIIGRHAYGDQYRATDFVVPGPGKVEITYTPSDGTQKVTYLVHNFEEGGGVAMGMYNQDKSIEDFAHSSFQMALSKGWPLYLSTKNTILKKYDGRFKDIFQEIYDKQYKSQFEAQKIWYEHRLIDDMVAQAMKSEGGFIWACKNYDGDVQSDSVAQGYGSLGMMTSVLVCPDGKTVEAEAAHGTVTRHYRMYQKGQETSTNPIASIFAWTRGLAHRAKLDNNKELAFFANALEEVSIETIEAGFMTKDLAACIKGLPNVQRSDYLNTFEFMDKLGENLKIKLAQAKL

[6] = Metabolic stability in rat liver microsomes assessed as compound remaining after 30 mins; type: ADME, Microsome; conditions: read-out: Stability
[7] = molecular target: Isocitrate dehydrogenase [NADP] cytoplasmic (Homo sapiens, UniProt O75874, R132G); test: Inhibition of human Myc-DDK-tagged IDH1 R132G mutant expressed in human U87MG cells assessed as reduction in 2-HG levels after 24 hrs by RapidFire high-throughput mass spectrometry assay; type: cell-based
Chain of Isocitrate dehydrogenase [NADP] cytoplasmic (Homo sapiens, UniProt O75874, R132G) (O75874 2-414 R132G limits assumed): as the sequence (O75874 2-414 R132C limits assumed) above, with C131G counted along it

[8] = Permeability of the compound by PAMPA; type: ADME; conditions: read-out: permeability
[9] = Apparent permeability of the compound across basolateral side to apical side in human Caco2 cells; type: ADME, cell-based; conditions: Caco-2
[10] = Efflux ratio of apparent permeability from basolateral side to apical side over apical side to basolateral side in human Caco2 cells; type: ADME, cell-based; conditions: Caco-2
[11] = Apparent permeability from apical side to basolateral side in MDCK cells; type: ADME, cell-based, Canis lupus familiaris; conditions: dog
[12] = Apparent permeability from basolateral side to apical side in MDCK cells; type: ADME, cell-based, Canis lupus familiaris; conditions: dog
[13] = Efflux ratio of apparent permeability from basolateral side to apical side over apical side to basolateral side in MDCK cells; type: ADME, cell-based, Canis lupus familiaris; conditions: dog
MDR1 (P-gp) [14] = test: Apparent permeability from apical side to basolateral side in MDCK cells harboring MDR1 (unknown origin); type: ADME, cell-based, Canis lupus familiaris; conditions: dog
MDR1 (P-gp) [15] = test: Apparent permeability from basolateral side to apical side in MDCK cells harboring MDR1 (unknown origin); type: ADME, cell-based, Canis lupus familiaris; conditions: dog
MDR1 (P-gp) [16] = test: Efflux ratio of apparent permeability from basolateral side to apical side over apical side to basolateral side in MDCK cells harboring MDR1 (unknown origin); type: ADME, cell-based, Canis lupus familiaris; conditions: dog
[17] = Protein binding in mouse plasma; type: ADME, cell-free; conditions: read-out: PPB (converted)
[18] = Protein binding in dog plasma; type: ADME, cell-free, Canis lupus familiaris; conditions: read-out: PPB (converted)
[19] = Octanol/aqueous buffer partition coefficient, log D of the compound at pH 7.4; type: physicochemical
[20] = Half-life in rat at 1 mg/kg, iv or 5 mg/kg, po; type: ADME, organism-based; conditions: in vivo
[21] = Cmax in rat at 1 mg/kg, iv or 5 mg/kg, po; type: ADME, organism-based; conditions: in vivo
[22] = fAUC (infinity) in rat at 1 mg/kg, iv or 5 mg/kg, po; type: ADME, organism-based; conditions: in vivo
[23] = Clearance in rat at 1 mg/kg, iv or 5 mg/kg, po; type: ADME, organism-based; conditions: in vivo
[24] = Oral bioavailability in rat at 5 mg/kg; type: ADME, organism-based; conditions: in vivo
[25] = Half-life in mouse at 1 mg/kg, iv or 5 mg/kg, po; type: ADME, organism-based; conditions: in vivo
[26] = Total Cmax in mouse at 1 mg/kg, iv or 5 mg/kg, po; type: ADME, organism-based; conditions: in vivo
[27] = Total AUC (infinity) in mouse at 1 mg/kg, iv or 5 mg/kg, po; type: ADME, organism-based; conditions: in vivo
[28] = Clearance in mouse at 1 mg/kg, iv or 5 mg/kg, po; type: ADME, organism-based; conditions: in vivo
[29] = Oral bioavailability in mouse at 5 mg/kg; type: ADME, organism-based; conditions: in vivo
[30] = Half-life in dog at 0.5 mg/kg, iv; type: ADME, organism-based, Canis lupus familiaris; conditions: in vivo
[31] = Total AUC (infinity) in dog at 0.5 mg/kg, iv; type: ADME, organism-based, Canis lupus familiaris; set-up: dose 0.5 mg/kg, time AUCmax, route intravenous; conditions: in vivo
[32] = fAUC (infinity) in dog at 0.5 mg/kg, iv; type: ADME, organism-based, Canis lupus familiaris; conditions: in vivo
[33] = Free drug concentration in plasma of po dosed BALB/c nude mouse xenografted with human HCT116 harboring R132C mutant administered at 12 hrs intervals and measured after 4 to 24 hrs post last dose; type: ADME, organism-based; conditions: in vivo
Mus musculus [34] = type: functional; conditions: BALB/c, HCT-116, po
Mus musculus [35] = test: In vivo inhibition of IDH1 R132C mutant in human HCT116 cells xenografted in BALB/c nude mouse assessed as reduction in tumor 2-HG level at 25 mg/kg, po bid administered at 12 hrs intervals and measured at <= 12 hrs post last dose by LC-MS analysis relative to control; type: functional; conditions: HCT-116, po
Mus musculus [36] = type: functional, BALB/c
Mus musculus [37] = test: In vivo inhibition of IDH1 R132C mutant in human HCT116 cells xenografted in po dosed BALB/c nude mouse assessed as reduction in tumor 2-HG level administered at 12 hrs intervals and measured up to 24 hrs post last dose by LC-MS analysis; type: functional
[38] = molecular target: Isocitrate dehydrogenase [NADP], mitochondrial (Homo sapiens, UniProt P48735, R140Q); test: Inhibition of IDH2 R140Q mutant (unknown origin)
Chain of Isocitrate dehydrogenase [NADP], mitochondrial (P48735 40-452 R140Q limits assumed): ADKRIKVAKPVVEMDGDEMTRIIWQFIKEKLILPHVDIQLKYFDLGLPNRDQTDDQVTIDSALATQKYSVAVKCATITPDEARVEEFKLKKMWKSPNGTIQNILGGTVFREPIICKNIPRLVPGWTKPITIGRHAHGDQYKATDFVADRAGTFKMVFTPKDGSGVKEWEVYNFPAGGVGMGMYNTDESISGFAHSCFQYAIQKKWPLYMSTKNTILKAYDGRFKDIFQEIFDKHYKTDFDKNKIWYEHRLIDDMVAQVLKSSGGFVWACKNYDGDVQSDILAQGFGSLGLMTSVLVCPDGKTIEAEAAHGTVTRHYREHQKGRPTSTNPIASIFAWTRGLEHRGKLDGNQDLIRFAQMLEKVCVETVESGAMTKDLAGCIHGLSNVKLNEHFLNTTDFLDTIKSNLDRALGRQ

CYP3A4 = CYP3A4 (Homo sapiens, UniProt P08684); test: Inhibition of CYP3A4 (unknown origin) at 10 uM relative to control; type: ADME
Chain of CYP3A4 (P08684 whole entry): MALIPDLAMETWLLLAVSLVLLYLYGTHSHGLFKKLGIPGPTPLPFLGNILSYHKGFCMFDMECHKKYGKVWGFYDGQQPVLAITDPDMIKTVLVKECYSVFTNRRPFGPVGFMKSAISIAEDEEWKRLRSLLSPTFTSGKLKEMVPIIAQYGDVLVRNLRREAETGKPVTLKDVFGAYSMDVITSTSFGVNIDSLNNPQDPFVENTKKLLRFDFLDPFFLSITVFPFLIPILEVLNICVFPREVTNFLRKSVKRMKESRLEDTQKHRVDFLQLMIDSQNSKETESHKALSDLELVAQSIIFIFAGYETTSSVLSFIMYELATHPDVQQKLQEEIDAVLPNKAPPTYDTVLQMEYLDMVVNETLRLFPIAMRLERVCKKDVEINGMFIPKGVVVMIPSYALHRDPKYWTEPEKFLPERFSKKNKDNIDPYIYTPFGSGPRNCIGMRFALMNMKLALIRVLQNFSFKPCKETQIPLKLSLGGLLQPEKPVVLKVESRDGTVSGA

CYP2C9 = CYP2C9 (Homo sapiens, UniProt P11712); test: Inhibition of CYP2C9 (unknown origin) at 10 uM relative to control; type: ADME
Chain of CYP2C9 (P11712 whole entry): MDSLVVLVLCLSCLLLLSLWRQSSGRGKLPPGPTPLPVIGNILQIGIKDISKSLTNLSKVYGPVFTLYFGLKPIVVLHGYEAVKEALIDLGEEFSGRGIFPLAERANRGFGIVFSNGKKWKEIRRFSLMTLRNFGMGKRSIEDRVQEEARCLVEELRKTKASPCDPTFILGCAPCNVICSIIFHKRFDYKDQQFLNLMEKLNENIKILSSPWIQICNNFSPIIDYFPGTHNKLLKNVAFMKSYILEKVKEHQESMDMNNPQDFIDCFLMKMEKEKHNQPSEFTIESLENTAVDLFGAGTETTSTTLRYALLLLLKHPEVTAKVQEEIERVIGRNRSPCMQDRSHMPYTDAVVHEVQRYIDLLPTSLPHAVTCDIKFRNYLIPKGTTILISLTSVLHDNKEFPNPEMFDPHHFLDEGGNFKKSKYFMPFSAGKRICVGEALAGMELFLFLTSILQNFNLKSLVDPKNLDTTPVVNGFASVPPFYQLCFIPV

CYP2C19 = CYP2C19 (Homo sapiens, UniProt P33261); test: Inhibition of CYP2C19 (unknown origin) at 10 uM relative to control; type: ADME
Chain of CYP2C19 (P33261 whole entry): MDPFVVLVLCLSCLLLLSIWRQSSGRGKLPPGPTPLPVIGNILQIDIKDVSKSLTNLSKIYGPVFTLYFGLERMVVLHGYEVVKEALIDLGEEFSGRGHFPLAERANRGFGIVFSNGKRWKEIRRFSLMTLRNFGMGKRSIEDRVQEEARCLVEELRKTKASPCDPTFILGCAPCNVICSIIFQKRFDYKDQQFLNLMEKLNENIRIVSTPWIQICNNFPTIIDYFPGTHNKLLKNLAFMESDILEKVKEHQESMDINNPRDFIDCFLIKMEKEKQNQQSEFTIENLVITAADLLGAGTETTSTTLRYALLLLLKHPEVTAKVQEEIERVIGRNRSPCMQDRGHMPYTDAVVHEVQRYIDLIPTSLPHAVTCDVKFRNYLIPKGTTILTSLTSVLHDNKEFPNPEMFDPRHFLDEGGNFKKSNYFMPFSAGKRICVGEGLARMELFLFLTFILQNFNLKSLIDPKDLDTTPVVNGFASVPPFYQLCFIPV

Cytochrome P450 3A4 [39] = molecular target: T1, Cytochrome P450 3A4 (Homo sapiens, UniProt P08684); test: Time dependent inhibition of CYP3A4 (unknown origin) at <5 uM using midazolam as substrate; type: ADME
T1 sequence (P08684 whole entry): as the sequence (P08684 whole entry) above

Cytochrome P450 3A4 [40] = molecular target: T1, Cytochrome P450 3A4; test: Time dependent inhibition of CYP3A4 (unknown origin) at <5 uM pre-incubated for 30 mins followed by midazolam substrate addition in absence of NADPH; type: ADME
Cytochrome P450 3A4 [41] = molecular target: T1, Cytochrome P450 3A4; test: Time dependent inhibition of CYP3A4 (unknown origin) at <5 uM pre-incubated for 30 mins followed by midazolam substrate addition in presence of NADPH; type: ADME
Cytochrome P450 3A4 [42] = molecular target: T1, Cytochrome P450 3A4; test: Time dependent inhibition of CYP3A4 (unknown origin) at <5 uM pre-incubated for 30 mins followed by testosterone substrate addition in absence of NADPH; type: ADME
[43] = molecular target: alpha1 adrenergic receptor (Homo sapiens, UniProt P35348); test: Displacement of [3H] prazosin from human alpha1 adrenergic receptor at 1 uM measured after 60 mins by scintillation counting method relative to control; conditions: probe [3H] prazosin
Chain of alpha1 adrenergic receptor (P35348 whole entry): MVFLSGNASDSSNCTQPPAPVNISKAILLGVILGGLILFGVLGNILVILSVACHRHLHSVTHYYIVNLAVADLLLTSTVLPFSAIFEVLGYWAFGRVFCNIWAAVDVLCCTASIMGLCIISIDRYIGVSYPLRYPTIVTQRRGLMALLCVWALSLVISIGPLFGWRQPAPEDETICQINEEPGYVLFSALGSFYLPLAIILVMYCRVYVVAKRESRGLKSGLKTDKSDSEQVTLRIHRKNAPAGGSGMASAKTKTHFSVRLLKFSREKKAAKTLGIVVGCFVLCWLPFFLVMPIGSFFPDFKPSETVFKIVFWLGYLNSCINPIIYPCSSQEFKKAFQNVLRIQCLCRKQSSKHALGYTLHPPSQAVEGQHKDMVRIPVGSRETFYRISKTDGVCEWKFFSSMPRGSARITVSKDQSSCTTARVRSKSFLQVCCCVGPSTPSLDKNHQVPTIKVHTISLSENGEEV

[44] = molecular target: NET (noradrenaline transporter) (Homo sapiens, UniProt P23975); test: Displacement of [3H]nisoxetine from recombinant human NET receptor at 10 uM after 120 mins by scintillation counting method relative to control; conditions: probe [3H]nisoxetine
Chain of NET (noradrenaline transporter) (P23975 whole entry): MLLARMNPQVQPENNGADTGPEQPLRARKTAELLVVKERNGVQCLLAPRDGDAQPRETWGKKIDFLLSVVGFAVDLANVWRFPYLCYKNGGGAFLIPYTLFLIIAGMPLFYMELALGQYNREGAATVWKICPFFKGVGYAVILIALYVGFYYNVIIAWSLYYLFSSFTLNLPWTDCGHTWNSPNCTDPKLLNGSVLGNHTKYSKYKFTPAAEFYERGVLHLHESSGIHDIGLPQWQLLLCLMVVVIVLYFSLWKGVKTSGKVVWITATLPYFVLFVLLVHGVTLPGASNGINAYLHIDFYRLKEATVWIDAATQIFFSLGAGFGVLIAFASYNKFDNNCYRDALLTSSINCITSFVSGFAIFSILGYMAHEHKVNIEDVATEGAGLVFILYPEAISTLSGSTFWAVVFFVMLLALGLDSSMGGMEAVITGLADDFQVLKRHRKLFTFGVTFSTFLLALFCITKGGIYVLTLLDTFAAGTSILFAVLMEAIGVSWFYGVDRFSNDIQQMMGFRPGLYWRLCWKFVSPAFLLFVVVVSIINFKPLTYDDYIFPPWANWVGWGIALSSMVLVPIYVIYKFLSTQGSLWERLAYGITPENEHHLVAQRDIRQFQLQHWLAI

[45] = Metabolic stability in dog liver microsomes assessed as compound remaining after 30 mins; type: ADME, Canis lupus familiaris, Microsome; conditions: read-out: Stability
[46] = Protein binding in mouse plasma assessed as unbound fraction; type: ADME, cell-free

Question: Which remaining at 0.5 h [1] does the source give for `COc1nc(N[C@@H](C)c2cc3cc(Cl)ccc3[nH]c2=O)ncc1C#N` here?
Answer: Its remaining at 0.5 h is 100 to 108%.

Question: And the remaining at 0.5 h [2]?
Answer: Its remaining at 0.5 h is 100 to 106%.

Question: What about the solubility kinetic [3] of the same compound?
Answer: The solubility kinetic was 10.5 µM (≈ 3.74 µg/mL).

Question: And the IC50 [4]?
Answer: Its IC50 is 0.13 µM.

Question: And the IC50 [5]?
Answer: The IC50 was 35 µM.

Question: And the remaining at 0.5 h [6]?
Answer: Its remaining at 0.5 h is 94 to 100%.

Question: What about the IC50 [7] of the same compound?
Answer: Its IC50 is 0.12 µM.

Question: And the Papp [8]?
Answer: Its Papp is 18 ×10⁻⁶ cm/s.

Question: And the Papp B→A [9]?
Answer: The Papp B→A was 8.64 ×10⁻⁶ cm/s.

Question: What about the efflux ratio [10] of the same compound?
Answer: The efflux ratio was 1.

Question: And the Papp A→B [11]?
Answer: Its Papp A→B is 12.6 ×10⁻⁶ cm/s.

Question: And the Papp B→A [12]?
Answer: Its Papp B→A is 7.97 ×10⁻⁶ cm/s.

Question: And the efflux ratio [13]?
Answer: The efflux ratio was 0.63.

Question: And the Papp A→B (MDR1 (P-gp) [14])?
Answer: Its Papp A→B is 8.35 ×10⁻⁶ cm/s.

Question: What about the Papp B→A (MDR1 (P-gp) [15]) of the same compound?
Answer: Its Papp B→A is 9.93 ×10⁻⁶ cm/s.

Question: What about the efflux ratio (MDR1 (P-gp) [16]) of the same compound?
Answer: The efflux ratio was 1.19.

Question: What about the fraction unbound [17] of the same compound?
Answer: Its fraction unbound is 0.0193.

Question: What about the fraction unbound [18] of the same compound?
Answer: The fraction unbound was 0.0369.

Question: And the logD [19]?
Answer: Its logD is 2.68.

Question: And the half-life [20]?
Answer: The half-life was 2.2 h.

Question: What about the Cmax [21] of the same compound?
Answer: Its Cmax is 3.8 µM.

Question: And the fAUC [22]?
Answer: Its fAUC is 0.459 µM·h.

Question: And the clearance [23]?
Answer: The clearance was 8.6 mL/min/kg.

Question: And the bioavailability [24]?
Answer: Its bioavailability is 81%.

Question: What about the half-life [25] of the same compound?
Answer: The half-life was 10 h.

Question: And the Cmax [26]?
Answer: The Cmax was 5.9 µM.

Question: What about the AUC(0-inf) [27] of the same compound?
Answer: Its AUC(0-inf) is 107 µM·h.

Question: And the clearance [28]?
Answer: Its clearance is 3.3 mL/min/kg.

Question: And the bioavailability [29]?
Answer: The bioavailability was 130%.

Question: What about the half-life [30] of the same compound?
Answer: Its half-life is 5.2 h.

Question: What about the AUC(0-inf) [31] of the same compound?
Answer: The AUC(0-inf) was 3.3 µM·h.

Question: What about the fAUC [32] of the same compound?
Answer: Its fAUC is 0.123 µM·h.

Question: And the “Drug uptake(free)” value [33]?
Answer: The value was “Dose-dependent effect”.

Question: What about the inhibition in vivo at 25 mg/kg (Mus musculus [34]) of the same compound?
Answer: The inhibition in vivo at 25 mg/kg was over 90%.

Question: And the inhibition in vivo at 25 mg/kg (Mus musculus [35])?
Answer: The inhibition in vivo at 25 mg/kg was over 90%.

Question: And the fIC50 (Mus musculus [36])?
Answer: The fIC50 was 49 nM.

Question: And the fIC50 (Mus musculus [37])?
Answer: Its fIC50 is 46 nM.

Question: And the IC50 [38]?
Answer: The IC50 was 76.6 µM.

Question: What about the inhibition at 10 µM (CYP3A4) of the same compound?
Answer: The inhibition at 10 µM was 15.4%.

Question: What about the inhibition at 10 µM (CYP2C9) of the same compound?
Answer: Its inhibition at 10 µM is 13.6%.

Question: What about the inhibition at 10 µM (CYP2C19) of the same compound?
Answer: The inhibition at 10 µM was 22.7%.

Question: What about the TDI (Cytochrome P450 3A4 [39]) of the same compound?
Answer: Its TDI is “Not Active”.

Question: What about the TDI (Cytochrome P450 3A4 [40]) of the same compound?
Answer: Its TDI is “Not Active”.

Question: And the TDI (Cytochrome P450 3A4 [41])?
Answer: The TDI was “Not Active”.

Question: What about the TDI (Cytochrome P450 3A4 [42]) of the same compound?
Answer: The TDI was “Not Active”.

Question: And the inhibition at 1 h, 1 µM [43]?
Answer: The inhibition at 1 h, 1 µM was over 50%.

Question: And the inhibition at 2 h, 10 µM [44]?
Answer: The inhibition at 2 h, 10 µM was over 50%.

Question: What about the remaining at 0.5 h [45] of the same compound?
Answer: The remaining at 0.5 h was 94%.

Question: What about the fraction unbound [46] of the same compound?
Answer: Its fraction unbound is 0.019.

— ChEMBL document CHEMBL4359816, “Discovery and Optimization of Quinolinone Derivatives as Potent, Selective, and Orally Bioavailable Mutant Isocitrate Dehydrogenase 1 (mIDH1) Inhibitors” (J Med Chem, 2019)
